Experimental data from article PMC7855930, “Nontoxic Cobalt(III) Schiff Base Complexes with Broad‐Spectrum Antifungal Activity” (Chemistry (Weinheim an Der Bergstrasse, Germany), 2020).
Values joined by “and” are separate entries in the source; they are usually repeats but may differ in a detail not shown here. Equal entries are not always repeated. Where two headings read alike, the source gives them in different places.

Key:
C. auris CBS 10913 = test: Antifungal MIC assay (broth microdilution in YNB); type: cell-based, Candida auris; details: for MIC C. auris CBS 10913, lowest value ('as low as'): lower end of MIC range
Description: (§1) Yeast strains: Candida albicans (ATCC 90028, NCCLS 11), Cryptococcus neoformans (ATCC 208821, H99 type strain), Candida tropicalis (ATCC 750, type strain), Candida glabrata (ATCC 90030, NCCLS 84) and Cryptococcus deuterogattii (ATCC 32609, type strain) were obtained from the American Type Culture Collection (ATCC). Cryptococcus deuterogattii (CBS 7750), Candida auris (CBS 10913) and Candida auris (CBS 12373) were obtained from the CBS‐KNAW culture collection. The strains were maintained on glycerol/YPD (yeast extract‐peptone dextrose) broth (20:80 v/v) at −80 °C.
(§2) Antifungal minimum inhibitory concentration (MIC) assay: The cobalt complexes and antifungal control compounds were serially diluted in 50 μL of Yeast Nitrogen Broth (YNB; BD, Cat No. 233520 supplemented with 2 % glucose and 10 mM ammonium sulfate) two‐fold across the wells of non‐binding surface (NBS) 96‐well plates (Corning; Cat. No. 3641). Plates were set up in quadruplicate for each strain tested, and two biological replicates were conducted on separate assay days.
(§3) Yeast strains were cultured from glycerol onto YPD (Becton Dickinson 242720) agar at 30 °C for 72 h. For each strain, a minimum of five single colonies were taken from the agar plate and dissolved in sterile water and adjusted to form a yeast suspension of 1×10^6 to 5×10^6 CFU mL^−1 (as determined by OD530). The suspension was subsequently diluted into YNB media, and added to each well of the compound containing plates, giving a final cell density of 2.5×10^3 CFU mL^−1 and a total volume of 100 μL. Plates were covered and incubated at 35 °C for 36 h without shaking.
(§4) Growth inhibition of all strains was determined visually where the MIC was recorded as the lowest compound concentration with no visible growth. Fluconazole (Sigma F8929), ketoconazole (Sigma K1003) and micafungin (Sigma SML2288) were used as internal positive inhibitor controls for every strain tested.

C. auris CBS 12373 = test: Antifungal MIC assay (broth microdilution in YNB); type: cell-based, Candida auris
Description: as §1, §2, §3, §4

C. tropicalis ATCC 750 = test: Antifungal MIC assay (broth microdilution in YNB); type: cell-based, Candida tropicalis
Description: as §1, §2, §3, §4

[1] = tested on: C. neoformans ATCC 208821; test: Antifungal MIC assay (broth microdilution in YNB); type: cell-based, Cryptococcus neoformans
Description: as §1, §2, §3, §4

human red blood cells = test: Haemolysis assay; type: cell-based; details: 1 h at 37 °C
Experimental: Haemolysis assay: Human whole blood (Australian Red Cross Blood Service) was washed three times with three volumes of 0.9 % NaCl and resuspended in a concentration of 0.5×10^8 cells mL^−1, determined by manual cell count in a Neubauer haemocytometer. Washed cells were added to compound containing plates (384‐well round bottom polypropylene plates, Corning 3657) for a final volume of 50 μL, shaken for 10 min and incubated for 1 h at 37 °C, without shaking. After incubation, the plates were centrifuged at 1000 g for 10 min to pellet cells and debris, 25 μL of the supernatant was then transferred to reading plates (384‐well flat bottom polystyrene plates, Corning CLS3680), with haemolysis determined by measuring the supernatant absorbance at […] (OD405), using cells without inhibitors as negative control and cells with 1 % Triton X‐100 (Sigma T8787) as positive control. HC10 and HC50 (concentration at which 10 and 50 % haemolysis is induced, respectively) were calculated by curve fitting the inhibition values vs. log(concentration) of four replicates using a sigmoidal dose–response function with variable fitting values for top, bottom and slope using Prism 8. Melittin (Sigma M2272) was used as positive haemolytic control on each plate. Human ethics approval from the University of Queensland Institutional Human Research Ethics Committee was obtained for use of human blood for haemolysis studies (approval number 201400003).

[2] = tested on: Acinetobacter baumannii ATCC 19606; test: CO-ADD bacterial broth microdilution MIC assay; type: cell-based; details: CAMHB, 37 °C, 18 h, ≥ 80% inhibition; for MIC: Acinetobacter baumannii, ATCC19606, read-out: MIC Ab (Acinetobacter baumannii ATCC 19606)
Experimental: (§5) CO-ADD High Throughput Screening
(§6) Bacterial broth microdilution minimum inhibitory concentration (MIC) assay Bacterial strains were cultured in Cation-adjusted Mueller Hinton broth (CAMHB; Bacto Laboratories 212322) at 37 °C overnight. A sample of each culture was then diluted 40-fold in fresh CAMHB and incubated at 37 °C for 1.5-3 h. The resultant mid-log phase cultures were diluted with CAMHB (CFU/mL measured by OD600), then added to each well of the compound-containing plates (384-well non-binding surface (NBS) plates; Corning CLS3640), giving a cell density of 5 × 10^5 CFU/mL and a total volume of 50 µL. Plates were covered and incubated at 37 °C for 18 h without shaking. Inhibition of bacterial growth was determined measuring absorbance at 600 nm (OD600), using media only as negative control and bacteria without inhibitors as positive control. MIC values were determined as the lowest concentration at which the growth was inhibited at ≥ 80%. Colistin sulfate (Sigma C4461) and vancomycin HCl (Sigma 861987) were used as positive inhibitor controls on each plate for Gram-negative and Gram-positive bacteria, respectively.
(§7) Figure S1. 1H NMR (400 MHz) of [Co(ATS)(DMAP)2]NO3 (3) in DMSO-d6.
(§8) (1 picture or pasted object on this page, not shown here)

[3] = tested on: Escherichia coli ATCC 25922; test: CO-ADD bacterial broth microdilution MIC assay; type: cell-based; details: CAMHB, 37 °C, 18 h, ≥ 80% inhibition; for MIC: Escherichia coli, ATCC25922, read-out: MIC Ec (Escherichia coli ATCC 25922)
Experimental: as §5, §6, §7, §8

[4] = tested on: Pseudomonas aeruginosa ATCC 27853; test: CO-ADD bacterial broth microdilution MIC assay; type: cell-based; details: CAMHB, 37 °C, 18 h, ≥ 80% inhibition; for MIC: Pseudomonas aeruginosa, ATCC27853, read-out: MIC Pa (Pseudomonas aeruginosa ATCC 27853)
Experimental: as §5, §6, §7, §8

[5] = tested on: Staphylococcus aureus ATCC 43300 (MRSA); test: CO-ADD bacterial broth microdilution MIC assay; type: cell-based; details: for MIC Sa (Staphylococcus aureus ATCC 43300, MRSA) / MIC: CAMHB, 37 °C, 18 h, ≥ 80% inhibition; for MIC: Staphylococcus aureus, read-out: MIC Sa (Staphylococcus aureus ATCC 43300, MRSA)
Experimental: as §5, §6, §7, §8

[6] = tested on: Klebsiella pneumoniae ATCC 700603 (K6; ESBL SHV-18); type: cell-based; details: 18 h
Experimental: as §5, §6, §7, §8

[7] = range of MICs, n=8, 35 °C, 36 h, visual, read-out: MIC C. auris CBS 12373
[8] = range of MICs, n=8, 35 °C, 36 h, visual, read-out: MIC C. tropicalis ATCC 750
[9] = range of MICs, n=8, 35 °C, 36 h, visual, read-out: MIC C. neoformans ATCC 208821
[10] = Candidozyma auris, CBS10913, Table S1, read-out: MIC Candida auris CBS 10913
[11] = Candidozyma auris, CBS10913, range of MICs, n=8, 35 °C, 36 h, visual, read-out: MIC C. auris CBS 10913
[12] = Candidozyma auris, CBS12373, Table S1, read-out: MIC Candida auris CBS 12373
[13] = Candidozyma auris, CBS12373, range of MICs, n=8, 35 °C, 36 h, visual, read-out: MIC C. auris CBS 12373
[14] = Candida tropicalis, ATCC750, Table S1, read-out: MIC Candida tropicalis ATCC 750
[15] = Candida tropicalis, ATCC750, range of MICs, n=8, 35 °C, 36 h, visual, read-out: MIC C. tropicalis ATCC 750
[16] = Cryptococcus neoformans, ATCC208821, Table S1, read-out: MIC Cryptococcus neoformans ATCC 208821
[17] = Cryptococcus neoformans, ATCC208821, range of MICs, n=8, 35 °C, 36 h, visual, read-out: MIC C. neoformans ATCC 208821
[18] = range of MICs, n=8, 35 °C, 36 h, visual

Row | Compound | MIC Candida auris CBS 10913 (C. auris CBS 10913; Table S1) [µg/mL] | MIC Candida auris CBS 12373 (C. auris CBS 12373; Table S1) [µg/mL] | MIC (C. auris CBS 12373; [7]) [µM] | MIC Candida tropicalis ATCC 750 (C. tropicalis ATCC 750; Table S1) [µg/mL] | MIC (C. tropicalis ATCC 750; [8]) [µM] | MIC Cryptococcus neoformans ATCC 208821 ([1]; Table S1) [µg/mL] | MIC [1, 9] [µM] | Haem HC10 (concentration at which 10 % haemolysis is reached) (human red blood cells) | MIC Ab (Acinetobacter baumannii ATCC 19606) [2] [µg/mL] | MIC Ec (Escherichia coli ATCC 25922) [3] [µg/mL] | MIC Pa (Pseudomonas aeruginosa ATCC 27853) [4] [µg/mL] | MIC Sa (Staphylococcus aureus ATCC 43300, MRSA) [5] [µg/mL] | MIC Kp (Klebsiella pneumoniae ATCC 700603) [6] [µg/mL] | MIC (C. auris CBS 10913; [10]) [µg/mL] | MIC (C. auris CBS 10913; [11]) [µM] | MIC (C. auris CBS 12373; [12]) [µg/mL] | MIC (C. auris CBS 12373; [13]) [µM] | MIC (C. tropicalis ATCC 750; [14]) [µg/mL] | MIC (C. tropicalis ATCC 750; [15]) [µM] | MIC [1, 16] [µg/mL] | other results
1 | [Co(3F‐salophen)(3F‐BnNH2)2]NO3 [Compound 6] | 0.03 to 0.54 | 17.3 | 25 | > 69.4 | >100 | 69.4 | 100 | >100 µM | > 32 | > 32 | > 32 | 8 | > 32 | – | – | – | – | – | – | – | MIC C. auris CBS 10913, lowest value ('as low as') (C. auris CBS 10913): 0.098 µM; MIC methicillin‐resistant S. aureus (MRSA) ([5]; value in μM given in brackets in the text): 11.5 µM
2 | Oc1c(F)cccc1/C=N/CC/N=C/c1cccc(F)c1O [Compound L3] | – | – | – | – | – | – | – | >100 µM | – | – | – | – | > 32 | > 30.4 | > 100 | > 30.4 | 100 | > 30.4 | > 100 | > 30.4 | MIC [1, 17]: 100 µM; MIC [2]: > 32 µg/mL; MIC [3]: > 32 µg/mL; MIC [4]: > 32 µg/mL; MIC [5]: > 32 µg/mL
3 | CC(/C=C(\O)C(F)(F)F)=N\CC/N=C(C)/C=C(\O)C(F)(F)F [Compound L2] | – | – | – | – | – | – | – | >100 µM | – | – | – | – | > 32 | > 33.2 | > 100 | > 33.2 | > 100 | > 33.2 | > 100 | > 33.2 | MIC [1, 17]: > 100 µM; MIC [2]: > 32 µg/mL; MIC [3]: > 32 µg/mL; MIC [4]: > 32 µg/mL; MIC [5]: > 32 µg/mL
4 | CC(=N\NC(N)=S)/C(C)=N/NC(N)=S [Compound L1] | – | – | – | – | – | – | – | >100 µM | – | – | – | – | > 32 | > 23.2 | > 100 | > 23.2 | > 100 | > 23.2 | > 100 | > 23.2 | MIC [1, 17]: > 100 µM; MIC [2]: > 32 µg/mL; MIC [3]: > 32 µg/mL; MIC [4]: > 32 µg/mL; MIC [5]: > 32 µg/mL
5 | CC1=[N+]2N=C(N)[S][Co-3]23([n+]2ccc(N(C)C)cc2)([n+]2ccc(N(C)C)cc2)[S]C(N)=N[N+]3=C1C.O=[N+]([O-])[O-] [Compound 3, [Co(ATS)(DMAP)2]NO3] | 0.23 to 0.46 | 0.46 | 0.78 | 0.23 to 0.46 | – | 0.46 to 0.93 | – | 73.1 µM and 73.1 ± 20.4 µM | > 32 | > 32 | > 32 | > 32 | > 32 | – | – | – | – | – | – | – | MIC C. auris CBS 10913 (C. auris CBS 10913; [18]): 0.39 to 0.78 µM; MIC C. tropicalis ATCC 750 (C. tropicalis ATCC 750; [18]): 0.39 to 0.78 µM
6 | O=[N+]([O-])[O-].O=[N+]([O-])[O-].[Co+2] [Co, Co(NO3)2, reference compound] | > 29.1 | 29.1 | 100 | > 29.1 | >100 | > 29.1 | >100 | >100 µM | > 32 | > 32 | > 32 | > 32 | – | – | – | – | – | – | – | – | MIC (C. auris CBS 10913; range of MICs, n=8, 35 °C, 36 h, visual, read-out: MIC C. auris CBS 10913): >100 µM; MIC Kp (Klebsiella pneumoniae ATCC 700603) ([6]; CAMHB, 37 °C, ≥ 80% inhibition): > 32 µg/mL
7 | O=[N+]([O-])[O-].[NH3+][Co-3]123([NH3+])[O]c4c(F)cccc4C=[N+]1c1ccccc1[N+]2=Cc1cccc(F)c1[O]3 [Compound 7, [Co(3F‐salophen)(NH3)2]NO3] | 0.37 to 0.75 | 23.9 | 50 | 47.8 | 100 | 47.8 | 100 | >100 µM | > 32 | > 32 | > 32 | > 32 | > 32 | – | – | – | – | – | – | – | MIC C. auris CBS 10913, lowest value ('as low as') (C. auris CBS 10913): 0.78 µM; MIC C. auris CBS 10913 (C. auris CBS 10913; [18]): 0.78 to 1.56 µM
